Test results from patent US20220098201A1, “THE MONOHYDRATE OF ROGARATINIB HYDROCHLORIDE AND SOLID STATES THEREOF” (Bayer Aktiengesellschaft, priority 2019, published 2022).

Key:
[1] = Storage of solid forms in closed vessels at 25° C. and 50° C.; format: physicochemical; conditions: for Modification after storage in closed vessels: 12 months, humidity not set
[2] = Slurry experiments of monohydrate (A) in various solvents; format: physicochemical
From the text: The residues were filtered off and dried at room temperature and ambient humidity. Reproducible preparation was not possible for all solid state forms.

[3] = Moisture sorption: storage at various humidities, thermogravimetric analysis; format: physicochemical; conditions: for Mass loss after storage / Modification after storage: 25° C., 12 months
Description: TGA thermograms were recorded using thermobalances (model TGA7 and Pyris 1) from Perkin-Elmer.
The measurements were performed with a heating rate of 10 Kmin^−1 using open platinum pans. Flow gas was nitrogen. There was no sample preparation.
Their moisture content was then determined by thermogravimetric analysis.

[4] = Crystalline form (XRPD) in coated tablet during storage; format: physicochemical; conditions: see Table 5
Description: X-Ray diffraction patterns were recorded at room temperature using XRD-diffractometers X'Pert PRO (PANalytical) and STOE STADI-P (radiation Cu K alpha 1, wavelength 1.5406 Å). There was no sample preparation. All X-Ray reflections are quoted as °2θ (theta) values (peak maxima) with a resolution of ±0.2°.
Tablets with compound III were manufactured according to the method described above and an initial XRPD was recorded.

[5] = Stability in brown glass bottle; format: physicochemical; conditions: for Assay calc. on dried substance / Ethanol / Material and colour / Sum of all organic impurities / Water: brown glass bottle
[6] = Solubility in water compared with free base; format: physicochemical; conditions: compared with the free base
Bioavailability = conditions: stated as result of better solubility than the free base
[7] = Hygroscopicity and chemical stability of the di-hydrochloride on standing in air; format: physicochemical

With `COCc1c(-c2cc3cc(C)cc(OC)c3s2)c2c(N)ncnn2c1CN1CCNC(=O)C1.Cl.O.O` [Dihydrate (B)] the “Change of solid form during storage in a closed vessel” value ([1]; closed vessel, within two weeks) was “transformed into the monohydrate” and the “Change of solid form of isolated residue” value ([1]; stored at room temperature, in the course of two weeks) was “transformed into the Monohydrate”.
With `COCc1c(-c2cc3cc(C)cc(OC)c3s2)c2c(N)ncnn2c1CN1CCNC(=O)C1.Cl.O` [Compound (III), 4-{[4-amino-6-(methoxymethyl)-5-(7-methoxy-5-methyl-1-benzothiophen-2-yl)pyrrolo[2,1-f][1,2,4]triazin-7-yl]methyl}piperazin-2-one hydrochloride hydrate] the Modification residue ([2]; slurry in 1,4-Dioxane, 25 ° C., stirring time 1 week) was “Monohydrate (A)”, the Modification residue ([2]; slurry in Acetonitrile/water (1:1), 25 ° C., stirring time 1 week) was “Monohydrate (A)” and the Modification residue ([2]; slurry in Ethanol, 25 ° C., stirring time 4 weeks) was “Monohydrate (A)”. The Modification residue ([2]; slurry in Ethanol/water (1:1), 25 ° C., stirring time 1 week) was “Monohydrate (A)”, the Modification residue ([2]; slurry in Isopropanol, 0 ° C., stirring time 1 week) was “Monohydrate (A)” and the Modification residue ([2]; slurry in Isopropanol, 25 ° C., stirring time 4 weeks) was “Monohydrate (A)”. The Modification residue ([2]; slurry in Methanol, 0 ° C., stirring time 2 weeks) was “¾-Hydrate (D)”, the Modification residue ([2]; slurry in Methanol, 0 ° C., stirring time 5 weeks) was “Dihydrate (B)” and the Modification residue ([2]; slurry in Methanol, 25 ° C., stirring time 1 week) was “Monohydrate (A)”. For the same compound, the Modification residue ([2]; slurry in Tetrahydrofurane/water (1:1), 25 ° C., stirring time 4 weeks) was “Monohydrate (A)”, the Modification residue ([2]; slurry in Toluene, 25 ° C., stirring time 4 weeks) was “Monohydrate (A)” and the “Modification after storage in closed vessels” value ([1]; 25° C.) was “Monohydrate”. For the same compound, the “Modification after storage in closed vessels” value ([1]; 50° C.) was “Monohydrate”, the physical stability ([1]; Storage at 25 and 50° C. for 12 month) was “no changes in stability” and the “Mass loss after storage” value ([3]; 15% r. h.) was 3.7%. The Modification after storage ([3]; 15% r. h.) was “Monohydrate”, the “Mass loss after storage” value ([3]; 85% r. h.) was 3.7% and the Modification after storage ([3]; 85% r. h.) was “Monohydrate”. The “Mass loss after storage” value ([3]; 97% r. h.) was 3.7%, the Modification after storage ([3]; 97% r. h.) was “Monohydrate” and the Hygroscopicity ([3]; conclusion from moisture sorption tests, 12 month at 15%, 85% and 97% r.h.) was “not hygroscopic”. The uptake of water ([3]; stored for 12 month at 15% r.h., 85% r.h and 97% r.h.) was “no uptake of water”, the “Stability of the form in the tablet matrix” value [4] was “stable in the tablet matrix and does not change during storage” and the “Stability during storage over a long period of time” value [5] was “very stable during storage”. The “Assay calc. on dried substance” value ([5]; 25° C./60% r.h., 3 months) was 99.8%, the Ethanol ([5]; 25° C./60% r.h., 3 months) was 0.460% and the Material and colour ([5]; 25° C./60% r.h., 3 months) was “slightly grey-tinged solid”. For the same compound, the “Sum of all organic impurities” value ([5]; 25° C./60% r.h., 3 months) was 1.08%, the Water ([5]; 25° C./60% r.h., 3 months) was 3.9% and the “Assay calc. on dried substance” value ([5]; 25° C./60% r.h., 6 months) was 100.0%. The Ethanol ([5]; 25° C./60% r.h., 6 months) was 0.467%, the Material and colour ([5]; 25° C./60% r.h., 6 months) was “slightly grey-tinged solid” and the “Sum of all organic impurities” value ([5]; 25° C./60% r.h., 6 months) was 1.05%. For the same compound, the Water ([5]; 25° C./60% r.h., 6 months) was 3.5%, the “Assay calc. on dried substance” value ([5]; 25° C./60% r.h., 9 months) was 100.0% and the Ethanol ([5]; 25° C./60% r.h., 9 months) was 0.444%. The Material and colour ([5]; 25° C./60% r.h., 9 months) was “slightly grey-tinged solid”, the “Sum of all organic impurities” value ([5]; 25° C./60% r.h., 9 months) was 1.14% and the Water ([5]; 25° C./60% r.h., 9 months) was 3.5%. The “Assay calc. on dried substance” value ([5]; 25° C./60% r.h., 12 months) was 98.1%, the Ethanol ([5]; 25° C./60% r.h., 12 months) was 0.441% and the Material and colour ([5]; 25° C./60% r.h., 12 months) was “slightly grey-tinged solid”. For the same compound, the “Sum of all organic impurities” value ([5]; 25° C./60% r.h., 12 months) was 1.22%, the Water ([5]; 25° C./60% r.h., 12 months) was 3.6% and the “Assay calc. on dried substance” value ([5]; 25° C./60% r.h., 18 months) was 100.4%. For the same compound, the Ethanol ([5]; 25° C./60% r.h., 18 months) was 0.434%, the Material and colour ([5]; 25° C./60% r.h., 18 months) was “slightly grey-tinged solid” and the “Sum of all organic impurities” value ([5]; 25° C./60% r.h., 18 months) was 1.17%. For the same compound, the Water ([5]; 25° C./60% r.h., 18 months) was 3.6%, the “Assay calc. on dried substance” value ([5]; 25° C./60% r.h., 24 months) was 98.8% and the Ethanol ([5]; 25° C./60% r.h., 24 months) was 0.415%. For the same compound, the Material and colour ([5]; 25° C./60% r.h., 24 months) was “slightly grey-tinged solid”, the “Sum of all organic impurities” value ([5]; 25° C./60% r.h., 24 months) was 1.14% and the Water ([5]; 25° C./60% r.h., 24 months) was 3.5%. For the same compound, the “Assay calc. on dried substance” value ([5]; 40° C./75% r.h., 3 months) was 98.4%, the Ethanol ([5]; 40° C./75% r.h., 3 months) was 0.406% and the Material and colour ([5]; 40° C./75% r.h., 3 months) was “slightly grey-tinged solid”. For the same compound, the “Sum of all organic impurities” value ([5]; 40° C./75% r.h., 3 months) was 1.17%, the Water ([5]; 40° C./75% r.h., 3 months) was 3.6% and the “Assay calc. on dried substance” value ([5]; 40° C./75% r.h., 6 months) was 99.7%. For the same compound, the Ethanol ([5]; 40° C./75% r.h., 6 months) was 0.435%, the Material and colour ([5]; 40° C./75% r.h., 6 months) was “slightly grey-tinged solid” and the “Sum of all organic impurities” value ([5]; 40° C./75% r.h., 6 months) was 1.00%. For the same compound, the Water ([5]; 40° C./75% r.h., 6 months) was 3.4%, the “Assay calc. on dried substance” value ([5]; initial) was 100.3% and the Ethanol ([5]; initial) was 0.533%. The Material and colour ([5]; initial) was “slightly grey-tinged solid”, the “Sum of all organic impurities” value ([5]; initial) was 1.03% and the Water ([5]; initial) was 3.5%. For the same compound, the chemical stability ([5]; during storage for several years) was “chemically stable”, the solubility in water [6] was “significantly better solubility in water” and the bioavailability (Bioavailability) was “enhanced bioavailability”.
With `COCc1c(-c2cc3cc(C)cc(OC)c3s2)c2c(N)ncnn2c1CN1CCNC(=O)C1.Cl.O.O.O` [Trihydrate] the “Modification after storage in closed vessels” value ([1]; 25° C.) was “Trihydrate”, the “Mass loss after storage” value ([3]; 85% r. h.) was 3.3% and the Modification after storage ([3]; 85% r. h.) was “Monohydrate*”. For the same compound, the “Mass loss after storage” value ([3]; 97% r. h.) was 6.0%, the Modification after storage ([3]; 97% r. h.) was “Monohydrate*” and the “Change of solid form during storage at high humidity” value ([3]; storage at high humidity) was “changed into the monohydrate”.
With `COCc1c(-c2cc3cc(C)cc(OC)c3s2)c2c(N)ncnn2c1CN1CCNC(=O)C1.Cl.Cl` [di-hydrochloride, di-hydrochloride of 4-{[4-Amino-6-(methoxymethyl)-5-(7-methoxy-5-methyl-1-benzothiophen-2-yl)pyrrolo[2,1-f][1,2,4]triazin-7-yl]methyl}piperazin-2-one] the Hygroscopicity [7] was “very hydroscopic” and the chemical stability ([7]; on standing in the air) was “loses HCl on standing in the air”.
